# Data from BindingDB's records for doi:10.1038/42506 (The University of Tokyo, 1997).
# Target: T1, Leukotriene B4 receptor 2 (Homo sapiens, UniProt Q9NPC1)
# T1 sequence (Q9NPC1 whole entry): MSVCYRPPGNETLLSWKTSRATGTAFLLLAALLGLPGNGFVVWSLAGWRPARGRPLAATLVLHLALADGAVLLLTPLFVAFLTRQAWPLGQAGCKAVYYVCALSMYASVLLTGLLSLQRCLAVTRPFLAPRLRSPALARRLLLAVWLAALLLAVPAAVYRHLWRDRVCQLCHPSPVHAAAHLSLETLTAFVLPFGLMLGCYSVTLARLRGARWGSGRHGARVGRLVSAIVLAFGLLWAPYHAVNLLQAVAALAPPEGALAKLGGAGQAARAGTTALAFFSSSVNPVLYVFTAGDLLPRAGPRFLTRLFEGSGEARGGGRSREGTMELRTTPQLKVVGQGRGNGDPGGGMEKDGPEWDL
row,Compound,Ki
1,"CCCCC/C=C\C[C@H](O)/C=C/c1cccc(C[C@H](O)CCCCO)n1 [(5R)-6-[6-[(1E,3S,5Z)-3-hydroxyundeca-1,5-dienyl]pyridin-2-yl]hexane-1,5-diol]",0.12 µM
2,CCCCCCC=CC(=O)C=CC=CC=CC(O)CCCC(=O)O (stereo not given) [CAS_5280876],0.0076 µM
3,O=C(O)CCCC(O)C=CC=CC=CC(O)CC=CCCCCCO (stereo not given) [NSC_1589],0.0076 µM
4,O=C(O)CCCCCC=CCC(O)C=CC=CC=CC(O)CCCC(=O)O (stereo not given) [NSC_128572],0.19 µM
5,COc1ccc(/C=C/CCCCOc2cccc(OCCCCC(=O)O)c2CCC(=O)O)cc1 [ONO 4057],1.2 µM
